Source: patent publication US20260109727A1, “RNA CONSTRUCTS AND USES THEREOF” (BioNTech SE, priority 2022, published 2026)
“Also recorded” adds a separate entry of the source.

Experiments:
human PBMCs = test: XTT cytotoxicity test of PBMCs transfected with LPX-formulated EPO mRNA; type: cell-based; settings: 24 h, up to 1 μg/well mRNA
Description: Human buffy coats from healthy individuals were obtained from the Faculty of Medicine of Johannes Gutenberg University, Mainz and used to isolate peripheral blood mononuclear cells (PBMCs) on a Ficoll-Paque™ PLUS (Cytiva, Marlborough, MA, USA) density gradient. In preparation for mRNA transfection, cryopreserved PBMCs were thawed and seeded into 96-well plates at a density of 5×10^5 cells per well in 190 μL RPMI medium supplemented with 1% non-essential amino acids (NEAA), 1% sodium pyruvate and 10% Fetal Bovine Serum (Merck, Germany). Cells were maintained at 37° C. with 5% CO2 until transfection with 0.5, 1.5, 5.0 and 15 μg/ml lipoplex-formulated EPO mRNA (LPX-RNA), as described in Kranz, L. M., et al. (2016) Nature, 534, 396-401. The complexed RNA (10 μl per well) was added in triplicates and supernatants were collected at 24 h after transfection to perform single cell cytotoxicity assay and to measure the cytokine/chemokine profile. […] The levels of IL-6 (Interleukin 6), TNF-α (Tumor necrosis factor alpha), IL-1 (Interleukin 1 beta), IFN-γ (Interferon gamma), MCP-1 (Monocyte Chemoattractant Protein-1), […] (Macrophage inflammatory protein 1 beta) and IL-10 (Interleukin 10) were quantified 24 h after the mRNA transfection. […]

BALB/c mice [1] = test: Plasma EPO in mice IV injected with 3 μg TransIT-complexed EPO mRNA (ELISA); type: in vivo
Description: (§1) To confirm in vitro data, female BALB/c mice from Jackson Laboratory (Bar Harbor, ME, USA) at the age of eight to ten weeks were used for in vivo experiment in accordance with federal policies on animal research (Ethics approval number: G18-12-027). Mice (n=3/group) were injected intravenously (i.v.) with 3 μg TransIT-complexed (Mirus Bio) EPO mRNAs in a final volume of 200 μL Dulbecco's modified Eagle medium (DMEM). Mice used as controls were injected with TransIT-reagent diluted in DMEM but without RNA. Mice were injected with EPO mRNA complexed with TransIT-reagent and EPO levels in plasma were measured using ELISA (FIG. 8A). Hematocrit was measured from 18 μl of blood that was collected at the indicated times using centrifugation in Drummond microcaps glass capillary tubes (20 μl volume, Merck, Germany) as described (20) (FIG. 8B). After determination of the hematocrit, capillary tubes were snapped open, and the plasma was collected to measure EPO levels and analyzed for mouse Erythropoietin DuoSet ELISA kit (R&D Systems) according to the manufacturer's instructions. […] EPO RNA containing m1Ψ translated two-fold more than U-containing mRNA at each time points (FIG. 8A). Both compound I′-1 and compound I′-6 are suitable for translation of the encoded protein and each cap analog can be used for synthesizing of non-replicating functional mRNAs (FIG. 8A, 8B).
(§2) In each in vivo experiment in order to measure the translational efficiency and to determine the functionality of EPO mRNA capped with I′-1, I′-2, I′-3, I′-5, I′-6, I′-9, I′-12, I′-13, I′-16, CC114, and CC413 in vivo, female BALB/c mice from Jackson Laboratory (Bar Harbor, ME, USA) at the age of eight to ten weeks were used for in accordance with federal policies on animal research (Ethics approval number: G19-12-074). In each case, mice (n=3/group) were injected intravenously (i.v.) with 3 μg TransIT-complexed (Mirus Bio) EPO mRNAs in a final volume of 200 μL Dulbecco's modified Eagle medium (DMEM). Mice used as controls were injected with TransIT-reagent diluted in DMEM but without RNA. To measure hematocrits and EPO levels in the individual mice that were injected with EPO mRNA capped with I′-6, I′-1, CC114, and CC413 and complexed with TransIT-reagent, 18 μL of blood was collected at the indicated times (FIG. 8B) and centrifuged in Drummond microcaps glass capillary tubes (20 μl volume, Merck, Germany) as described (19). After determination of the hematocrit, capillary tubes were snapped open, and the plasma was collected to measure EPO levels and analyzed for mouse Erythropoietin DuoSet ELISA kit (R&D Systems) according to the manufacturer's instructions. […] EPO RNA containing m1Ψ modifications translated 2-3-fold, 5-fold, and 10-fold more than U-containing mRNAs at 6-24, 48 and 72 hours after injections, respectively. (FIG. 8A). […] To address translation of I′-6-capped mRNA in human primary hepatocytes, EPO level was measured from supernatants transfected using 0.1 μg/well TransIT-formulated I′-6- or CC114-capped uRNA (FIG. 13).
To this end, we generated U-containing as well as m1Ψ-modified EPO RNA capped with cap analogs which belong to either the non-ARCA (I′-13) or ARCA (I′-6) classes. Moreover, the latter ones contain 2′-OMe (I′-5) or 3′-OMe (I′-6) at the ribose of the m7G moiety. Three μg of TransIT-complexed EPO mRNA capped with nucleoside modification-containing NeoCaps I′-13, I′-5 and I′-6 cap analogs were injected into mice intravenously. After that EPO level of plasma collected from mice was measured at 6, 24 and 48 hours after administration to compare the translational activity of mRNA capped with NeoCaps with U-containing or m1Ψ-modified mRNA capped with non-modified ARCA 3′OMe I′-1.
Plasma EPO level of mice injected with 3 μg of each TransIT-complexed mRNA was determined using murine EPO-specific ELISA at 6, 24, 48 and 72 hours after intravenous administration. […]

BALB/c mice [2] = test: Hematocrit in mice IV injected with 3 μg TransIT-complexed EPO mRNA; type: in vivo
Description: as §1, §2

COC1C(OP(=O)(O)OC[C@H]2O[C@@H](c3cn(C)c(=O)[nH]c3=O)C(O)C2O)[C@@H](COP(=O)(O)OP(=O)([O-])OP(=O)(O)OC[C@H]2O[C@@H](n3c[n+](C)c4c(O)nc(N)nc43)C(O)C2OC)O[C@H]1n1cnc2c(N)ncnc21 (stereo partly shown) [I′-6, m^7G(^3′-OMe)pppA(2′-OMe)pm^1Ψ]
toxic effect on cell viability (XTT) (human PBMCs): no toxic effect | 24-hour EPO values compared with 6-hour values (BALB/c mice [1]; after IV injection): higher than the 6-hour values | translation (plasma EPO) relative to CC413 (BALB/c mice [1]; later time points): 2- to 3 fold | translation (EPO level) relative to I′-1 (BALB/c mice [1]; m1Ψ-modified mRNA capped with I′-6 vs U-containing mRNA capped with I′-1, each time point): 2-3 fold | translation relative to unmodified I′-1 (BALB/c mice [1]; m1Ψ-modified mRNA, 6-24 hours after administration): 2-3 fold | translation relative to unmodified I′-1 (BALB/c mice [1]; m1Ψ-modified mRNA, 48-72 hours after administration): 4-5 fold | translation / plasma EPO level relative to CC413 (BALB/c mice [1]; m1Ψ-modified mRNA, 48 and 72 h after injection, respectively): 1.5-3 fold | performance compared with cap analogs with other modification (BALB/c mice [1]; m1Ψ-modified mRNA, same capping efficiency): surpasses the performance of other cap analogs | translation of ARCA analogs compared to non-ARCA caps CC114 and I′-13 (BALB/c mice [1]; regardless of the RNA modification): significantly better | plasma EPO compared with reference samples (I′-1, CC114, CC413) (BALB/c mice [1]; regardless of the cap initiators): outperformed each reference sample | hematocrit value at 21 days compared with CC413-capped mRNA (BALB/c mice [2]; 21 days after administration): at the same level as the values of D7 and D14 | decrease of hematocrit values from D14 (BALB/c mice [2]; D14 after injection): not observed | hematocrit values (BALB/c mice [2]; up to day 21 after injection): very high and further increased after day 14; also recorded: remained very high level
